Common to all, as to format: functional, organism-based
What all share (conditions): Mus musculus

Assay [1] has as its system L1210. In words: Compound was tested for antitumor activity against L1210 Leukemia in mice at 50 mg/kg dose upon intraperitoneal administration. Also on record: dose 50 mg/kg.
Assay [2] deals with L1210. In words: Compound was tested for antitumor activity against L1210 Leukemia in mice at 12.5 mg/kg dose upon intraperitoneal administration. Also on record: dose 12.5 mg/kg.
The subject of assay [3] is L1210. The experiment in a line: Compound was tested for antitumor activity against L1210 Leukemia in mice at 25 mg/kg dose upon intraperitoneal administration. Also on record: dose 25 mg/kg.
Assay [4] deals with L1210. In words: Compound was tested for antitumor activity against L1210 Leukemia in mice at 100 mg/kg dose upon intraperitoneal administration. Also noted: dose 100 mg/kg.
Assay [5] has as its system L1210. The experiment in a line: Compound was tested for antitumor activity against L1210 Leukemia in mice at 6.25 mg/kg dose upon intraperitoneal administration. Also on record: dose 6.25 mg/kg.
For assay [6], the system named is L1210. In words: Compound was tested for antitumor activity against L1210 Leukemia in mice at 1.5 mg/kg dose upon intraperitoneal administration. Also noted: dose 1.5 mg/kg.
Assay [7] has as its system L1210. In words: Compound was tested for antitumor activity against L1210 Leukemia in mice at 25 mg/kg dose upon intraperitoneal administration: Toxic. Also on record: dose 25 mg/kg.
The test system of assay [8] is L1210. In words: Compound was tested for antitumor activity against L1210 Leukemia in mice at 12.5 mg/kg dose upon intraperitoneal administration: Toxic. Also noted: dose 12.5 mg/kg.
For assay [9], the system named is L1210. The experiment in a line: Compound was tested for antitumor activity against L1210 Leukemia in mice at 3.1 mg/kg dose upon intraperitoneal administration. Also on record: dose 3.1 mg/kg.
Assay [10] concerns L1210. In words: Compound was tested for antitumor activity against L1210 Leukemia in mice at 50 mg/kg dose upon intraperitoneal administration: Toxic. Also on record: dose 50 mg/kg.

“And” between values parts separate entries of the source, which are not always exact repeats. Identical values can stand only once.

Take CARBOPLATIN: the T/C (as a rule, the ratio of treated to control) was found to be 196% with L1210 [1]; 125% with L1210 [2]; 148% in the assay on L1210 [3]; 197% in the assay with L1210 [4]; 107% in the assay with L1210 [5].
On to CISPLATIN, for which the T/C turned out to be 142% in the assay on L1210 [6], 167% in the assay on L1210 [9] and 82% in the assay on L1210 [5]. Further, the Activity entry with L1210 [7] and with L1210 [8] was “Toxic” throughout.
Consider “(2R,3R)-2,3-dihydroxy-1,4-diaminobutane Platinum (II) complex”, for which the Activity result in the assay with L1210 [7] and in the assay on L1210 [10] was “Toxic” throughout. Moreover, the T/C was 118% and 131% with L1210 [2]; 148% in the assay with L1210 [3]; 195% in the assay with L1210 [4]; 125% and 135% in the assay with L1210 [5].

The record behind these values is ChEMBL document CHEMBL1128995, “Synthesis and antitumor activity of (2R,3R)-2,3-dihydroxy- and -2,3-dialkoxy-1,4-diaminobutane platinum(II) complexes” (Bioorg Med Chem Lett, 1996).
